From patent US8008456B2, “Compositions containing, methods involving, and uses of non-natural amino acids and polypeptides” (Ambrx, Inc., priority 2004, dated 2011)

Test: pH stability tests
Format: physicochemical
Experimental: This example provides the results of pH stability tests that were conducted on certain illustrative non-natural amino acids as an aid for predicting their properties for incorporation into non-natural amino acid polypeptides.

Compound: COCCOCNCCO/N=C(\C)CC(=O)c1ccccc1 [drawing 139]
- pH stability (pH 4.0, 1 hour): 4.0%
- pH stability (pH 4.0, 1 day): <1%
- pH stability (pH 4.0, 2 days): <1%
- pH stability (pH 4.0, 3 days): <1%
- pH stability (pH 4.0, 4 days): <1%
- pH stability (pH 4.0, 5 days): <1%
- pH stability (pH 4.0, 6 days): <1%
- pH stability (pH 4.0, 7 days): <1%
- pH stability (pH 4.0, 10 days): <1%
- pH stability (pH 5.0, 1 hour): 5.0%
- pH stability (pH 5.0, 1 day): <1%
- pH stability (pH 5.0, 2 days): <1%
- pH stability (pH 5.0, 3 days): <1%
- pH stability (pH 5.0, 4 days): <1%
- pH stability (pH 5.0, 5 days): <1%
- pH stability (pH 5.0, 6 days): <1%
- pH stability (pH 5.0, 7 days): <1%
- pH stability (pH 5.0, 10 days): <1%
- pH stability (pH 6.5, 1 hour): 6.5%
- pH stability (pH 6.5, 1 day): <1%
- pH stability (pH 6.5, 2 days): <1%
- pH stability (pH 6.5, 3 days): <1%
- pH stability (pH 6.5, 4 days): <1%
- pH stability (pH 6.5, 5 days): <1%
- pH stability (pH 6.5, 6 days): <1%
- pH stability (pH 6.5, 7 days): <1%
- pH stability (pH 6.5, 10 days): <1%
- pH stability (pH 7.4, 1 hour): 7.4%
- pH stability (pH 7.4, 1 day): <1%
- pH stability (pH 7.4, 2 days): <1%
- pH stability (pH 7.4, 3 days): <1%
- pH stability (pH 7.4, 4 days): <1%
- pH stability (pH 7.4, 5 days): <1%
- pH stability (pH 7.4, 6 days): <1%
- pH stability (pH 7.4, 7 days): <1%
- pH stability (pH 7.4, 10 days): <1%
- pH stability (pH 8.0, 1 hour): 8.0%
- pH stability (pH 8.0, 1 day): <1%
- pH stability (pH 8.0, 2 days): <1%
- pH stability (pH 8.0, 3 days): <1%
- pH stability (pH 8.0, 4 days): <1%
- pH stability (pH 8.0, 5 days): <1%
- pH stability (pH 8.0, 6 days): <1%
- pH stability (pH 8.0, 7 days): <1%
- pH stability (pH 8.0, 10 days): <1%

Compound: COCCOCNCCO/N=C(\C)CC(=O)c1ccccc1 [drawing 135]
- pH stability (pH 4.0, 1 hour): <1%
- pH stability (pH 4.0, 1 day): <1%
- pH stability (pH 4.0, 2 days): <1%
- pH stability (pH 4.0, 3 days): <1%
- pH stability (pH 4.0, 4 days): <1%
- pH stability (pH 4.0, 5 days): <1%
- pH stability (pH 4.0, 6 days): 2%
- pH stability (pH 4.0, 7 days): 2%
- pH stability (pH 4.0, 10 days): 3%
- pH stability (pH 5.0, 1 hour): <1%
- pH stability (pH 5.0, 1 day): <1%
- pH stability (pH 5.0, 2 days): <1%
- pH stability (pH 5.0, 3 days): <1%
- pH stability (pH 5.0, 4 days): <1%
- pH stability (pH 5.0, 5 days): <1%
- pH stability (pH 5.0, 6 days): <1%
- pH stability (pH 5.0, 7 days): <1%
- pH stability (pH 5.0, 10 days): <1%
- pH stability (pH 6.5, 1 hour): <1%
- pH stability (pH 6.5, 1 day): <1%
- pH stability (pH 6.5, 2 days): <1%
- pH stability (pH 6.5, 3 days): <1%
- pH stability (pH 6.5, 4 days): <1%
- pH stability (pH 6.5, 5 days): <1%
- pH stability (pH 6.5, 6 days): <1%
- pH stability (pH 6.5, 7 days): <1%
- pH stability (pH 6.5, 10 days): <1%
- pH stability (pH 7.4, 1 hour): <1%
- pH stability (pH 7.4, 1 day): <1%
- pH stability (pH 7.4, 2 days): <1%
- pH stability (pH 7.4, 3 days): <1%
- pH stability (pH 7.4, 4 days): <1%
- pH stability (pH 7.4, 5 days): 3%
- pH stability (pH 7.4, 6 days): 4%
- pH stability (pH 7.4, 7 days): 7%
- pH stability (pH 7.4, 10 days): 11%
- pH stability (pH 8.0, 1 hour): <1%
- pH stability (pH 8.0, 1 day): <1%
- pH stability (pH 8.0, 2 days): <1%
- pH stability (pH 8.0, 3 days): <1%
- pH stability (pH 8.0, 4 days): <1%
- pH stability (pH 8.0, 5 days): <1%
- pH stability (pH 8.0, 6 days): <1%
- pH stability (pH 8.0, 7 days): <1%
- pH stability (pH 8.0, 10 days): <1%

Compound: COCCOC(=O)NCCO/N=C(\C)COc1ccccc1
- pH stability (pH 4.0, 1 hour): 2%
- pH stability (pH 4.0, 1 day): 5%
- pH stability (pH 4.0, 2 days): 5%
- pH stability (pH 4.0, 3 days): 5%
- pH stability (pH 4.0, 4 days): 8%
- pH stability (pH 4.0, 5 days): 8%
- pH stability (pH 4.0, 6 days): 8%
- pH stability (pH 4.0, 7 days): 9%
- pH stability (pH 4.0, 10 days): 10%
- pH stability (pH 5.0, 1 hour): <1%
- pH stability (pH 5.0, 1 day): 5%
- pH stability (pH 5.0, 2 days): 5%
- pH stability (pH 5.0, 3 days): 5%
- pH stability (pH 5.0, 4 days): 5%
- pH stability (pH 5.0, 5 days): 5%
- pH stability (pH 5.0, 6 days): 5%
- pH stability (pH 5.0, 7 days): 5%
- pH stability (pH 5.0, 10 days): 5%
- pH stability (pH 6.5, 1 hour): <1%
- pH stability (pH 6.5, 1 day): <1%
- pH stability (pH 6.5, 2 days): <1%
- pH stability (pH 6.5, 3 days): <1%
- pH stability (pH 6.5, 4 days): <1%
- pH stability (pH 6.5, 5 days): <1%
- pH stability (pH 6.5, 6 days): <1%
- pH stability (pH 6.5, 7 days): <1%
- pH stability (pH 6.5, 10 days): <1%
- pH stability (pH 7.4, 1 hour): <1%
- pH stability (pH 7.4, 1 day): 15%
- pH stability (pH 7.4, 2 days): 15%
- pH stability (pH 7.4, 3 days): 15%
- pH stability (pH 7.4, 4 days): 15%
- pH stability (pH 7.4, 5 days): 15%
- pH stability (pH 7.4, 6 days): 15%
- pH stability (pH 7.4, 7 days): 15%
- pH stability (pH 7.4, 10 days): 15%
- pH stability (pH 8.0, 1 hour): <1%
- pH stability (pH 8.0, 1 day): 35%
- pH stability (pH 8.0, 2 days): 38%
- pH stability (pH 8.0, 3 days): 40%
- pH stability (pH 8.0, 4 days): 45%
- pH stability (pH 8.0, 5 days): 45%
- pH stability (pH 8.0, 6 days): 45%
- pH stability (pH 8.0, 7 days): 45%
- pH stability (pH 8.0, 10 days): 45%

Compound: COCCOC(=O)NCCO/N=C(\C)C(=O)Nc1ccccc1 [drawing 138]
- pH stability (pH 4.0, 1 hour): 4.0%
- pH stability (pH 4.0, 1 day): <1%
- pH stability (pH 4.0, 2 days): <1%
- pH stability (pH 4.0, 3 days): <1%
- pH stability (pH 4.0, 4 days): <1%
- pH stability (pH 4.0, 5 days): <1%
- pH stability (pH 4.0, 6 days): <1%
- pH stability (pH 4.0, 7 days): <1%
- pH stability (pH 4.0, 10 days): <1%
- pH stability (pH 5.0, 1 hour): 5.0%
- pH stability (pH 5.0, 1 day): <1%
- pH stability (pH 5.0, 2 days): <1%
- pH stability (pH 5.0, 3 days): <1%
- pH stability (pH 5.0, 4 days): <1%
- pH stability (pH 5.0, 5 days): <1%
- pH stability (pH 5.0, 6 days): <1%
- pH stability (pH 5.0, 7 days): <1%
- pH stability (pH 5.0, 10 days): <1%
- pH stability (pH 6.5, 1 hour): 6.5%
- pH stability (pH 6.5, 1 day): <1%
- pH stability (pH 6.5, 2 days): <1%
- pH stability (pH 6.5, 3 days): <1%
- pH stability (pH 6.5, 4 days): <1%
- pH stability (pH 6.5, 5 days): <1%
- pH stability (pH 6.5, 6 days): <1%
- pH stability (pH 6.5, 7 days): <1%
- pH stability (pH 6.5, 10 days): <1%
- pH stability (pH 7.4, 1 hour): 7.4%
- pH stability (pH 7.4, 1 day): <1%
- pH stability (pH 7.4, 2 days): <1%
- pH stability (pH 7.4, 3 days): <1%
- pH stability (pH 7.4, 4 days): <1%
- pH stability (pH 7.4, 5 days): <1%
- pH stability (pH 7.4, 6 days): <1%
- pH stability (pH 7.4, 7 days): <1%
- pH stability (pH 7.4, 10 days): <1%
- pH stability (pH 8.0, 1 hour): 8.0%
- pH stability (pH 8.0, 1 day): <1%
- pH stability (pH 8.0, 2 days): <1%
- pH stability (pH 8.0, 3 days): <1%
- pH stability (pH 8.0, 4 days): <1%
- pH stability (pH 8.0, 5 days): <1%
- pH stability (pH 8.0, 6 days): <1%
- pH stability (pH 8.0, 7 days): <1%
- pH stability (pH 8.0, 10 days): <1%
